From US9358229B2, “JAK PI3K/mTOR combination therapy” (Novartis Pharma AG, priority 2011, dated 2016)
Read-outs that look alike come from different tables or passages of the source.

How the values were obtained:
[1] = test system: Ba/F3-EPOR JAK2V617F-mutated cells; experiment: Cell proliferation in Ba/F3-EPOR JAK2V617F-mutated cells; format: cell-based; details: Mus musculus, read-out: IC50, cell proliferation
Procedure: (§1) Mouse (Ba/F3 and Ba/F3-EPOR wild-type or expressing JAK2V617F(VF)) and human (JAK2VF mutated HEL and SET2) cell lines and primary MPN CD34+ cells from patients with myelofibrosis (MF) or polycythemia vera (PV) were used; BCR/ABL mutated K562 cells were used in some experiments. Cell proliferation, colony formation, apoptosis, cell cycle and protein phosphorylation status were evaluated. Effects of drug combination were analyzed according to Chou and Talalay to calculate the combination index (CI); a CI<1.0 indicates synergistic activity.

[2] = test system: Ba/F3-EPOR JAK2 wild-type (wt) cells; experiment: Cell proliferation in Ba/F3-EPOR JAK2 wild-type cells; format: cell-based; details: Mus musculus, read-out: IC50, cell proliferation
Procedure: as §1

[3] = test system: JAK2V617F-mutated HEL cells; experiment: Cell proliferation and colony formation in HEL cells; format: cell-based; details: Homo sapiens
Procedure: as §1

[4] = test system: JAK2V617F-mutated SET2 cells; experiment: Cell proliferation and colony formation in SET2 cells; format: cell-based; details: Homo sapiens, SET-2
[5] = test system: BCR/ABL mutated K562 cells; experiment: Cell proliferation in K562 cells; format: cell-based; details: Homo sapiens
Procedure: as §1

[6] = test system: cell lines (Ba/F3, Ba/F3-EPOR, HEL, SET2); experiment: Apoptosis (Annexin-V) in cell lines; format: cell-based; details: at maximum / highest concentrations
Procedure: as §1

[7] = test system: EPO-independent colonies (EEC) of PV patients cells; experiment: Erythropoietin-independent colony (EEC) assay; format: cell-based, human; details: for prevention of erythropoietin-independent colony (EEC) formation: primary cells from MPN patients
Procedure: as §1
(§2) Then, the activity of RAD001 and Compound A was analyzed in primary cells from MPN patients.

CD34+ cells of MF pts = experiment: Proliferation of CD34+ cells of MF patients; format: cell-based; details: Homo sapiens
Procedure: as §1, §2

[8] = test system: CD34+ cells of healthy donors; experiment: Proliferation of CD34+ cells of healthy donors; format: cell-based; details: Homo sapiens
[9] = test system: JAK2V617F mutated patients cells; experiment: Single-colony genotyping in JAK2V617F mutated patients cells; format: cell-based, human; details: n=7
Procedure: as §2

[10] = test system: BaF3 JAK2V617F-luc+ cells; experiment: SCID BaF3 JAK2V617F-luciferase mouse model; format: in vivo; details: daily per os, 60 mpk Compound B, 45 mpk Compound A
Procedure: To ascertain the effects of drugs targeting PI3K/Akt/mTOR pathway alone and in combination with JAK2 inhibitor in a murine model of myeloproliferative neoplasms, a SCID BaF3 JAK2^V617F-luciferase mouse model was used. […] Female SCID mice (4-6 weeks of age; Harlan) were fed rodent standard chow and provided with water ad libitum. Mice were given 3×10^6 JAK2^V617F-luc+ cells by tail vein injection. Mice were injected with D-luciferin before imaging to detect a bioluminescence signal that is proportional to the clone burden. Baseline imaging was performed using a Photon Imager (Biospace Lab) apparatus to establish bioluminescence on day 6 after cell injection. […] Drugs treatment was administered daily per os (by mouth). Imaging was performed on day 7, 14, 21, and 28 after the first drug dose. Mice were followed daily for survival and humanely sacrificed when they developed hind limb paralysis or became moribund and considered deceased at the time at which they were sacrificed.

[11] = test system: JAK2 V617F Knock-in (KI) mouse; experiment: C57B16/J JAK2 V617F Knock-in (KI) mouse model; format: in vivo; details: KI mice treated for 5 days
Procedure: Mice were treated for 5 days, then blood, spleen and bone marrow cells were obtained for further analysis.

Q: Which results are given for `Cn1c(=O)n(-c2ccc(C(C)(C)C#N)cc2)c2c3cc(-c4cnc5ccccc5c4)ccc3ncc21` [Compound A, 2-methyl-2-[4-(3-methyl-2-oxo-8-quinolin-3-yl-2,3-dihydro-imidazo[4,5-c]quinolin-1-yl)-phenyl]-propionitrile]?
A: IC50 [1]: 0.087 ± 0.05 µM; IC50 [2]: 0.676 ± 0.2 µM; IC50 [3]: 0.387 ± 0.09 µM; IC50 [4]: 0.334 ± 0.04 µM; IC50 [5]: 5 µM; apoptosis / Annexin-V +ve cells [6]: 30-40%; IC50 ([7]; Homo sapiens, PV patients cells, read-out: IC50, growth of EPO-independent colonies (EEC)): 0.02 ± 0.01 µM; prevention of erythropoietin-independent colony (EEC) formation [7]: low nM range; IC50 (CD34+ cells of MF pts): 0.043 ± 0.02 µM; IC50 [8]: 0.78 ± 0.15 µM; reduction of VF in favor of wild-type colonies ([9]; mean): 40±16%; reduction of VF in favor of wild-type colonies, range ([9]; range): 18-71%; MEAN LIFESPAN [10]: 24 days; LIFESPAN INCREASE (%) VS VEHICLE [10]: 42%; median spleen index (ratio of spleen weight to body weight×100) [11]: 35; reticulocyte count median [11]: 50 No. per HPF

Q: How did the “MEAN LIFESPAN” value [10] turn out when `N#CC[C@H](C1CCCC1)n1cc(-c2ncnc3[nH]ccc23)cn1` [Compound B, (3R)-3-cyclopentyl-3-[4-(7H-pyrrolo[2,3-d]pyrimidin-4-yl)-1H-pyrazol-1-yl]propanenitrile] was run?
A: 19 days

Q: What about the “LIFESPAN INCREASE (%) VS VEHICLE” value [10] of the same compound?
A: 19%

Q: What about the reticulocyte count median [11] of the same compound?
A: 44 No. per HPF

Q: For `CO[C@H]1C[C@@H]2CC[C@@H](C)[C@@](O)(O2)C(=O)C(=O)N2CCCC[C@H]2C(=O)O[C@H]([C@H](C)C[C@@H]2CC[C@@H](OCCO)[C@H](OC)C2)CC(=O)[C@H](C)/C=C(\C)[C@@H](O)[C@@H](OC)C(=O)[C@H](C)C[C@H](C)/C=C/C=C/C=C/1C` [RAD001, reference compound], which IC50 ([1]; Ba/F3-EPOR JAK2V617F-mutated cells) is on record?
A: 0.615 ± 0.05 µM

Q: And the IC50 ([2]; Ba/F3-EPOR JAK2 wild-type cells)?
A: > 10 µM

Q: And the “prevention of erythropoietin-independent colony (EEC) formation” value [7]?
A: low nM range
